The text below walks through data of patent publication US20250092039A1, “GLUTARIMIDE-CONTAINING PAN-KRAS-MUTANT DEGRADER COMPOUNDS AND USES THEREOF” (Tiger Biotherapeutics Inc., priority 2022, published 2025).

Molecules are shown by their SMILES. Where two headings read alike, the source gives them in different places.

One data set concerns the target KRAS-G12V/RAF1 (Homo sapiens (Human), UniProt P01116, G12V). As to the kind of experiment: KRAS/RAF1 binding inhibition assay (AlphaScreen). An outline of the steps: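 Binding of GppNHp-loaded KRAS G12V to the RAF1 RBD was measured by AlphaScreen with test compound present in 2% DMSO (final), 60 min incubation at 4° C. Signals were converted to % inhibition versus DMSO, and IC50 was obtained by variable-slope nonlinear regression.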
A general note: Bead proximity is the source of the signal in Alpha formats.

For the next data set, the system named is SW620 cells. As to the kind of experiment: 3D cell growth inhibition of SW620 cells carrying endogenous KRAS G12V mutation (CellTiter-Glo 3D, GI50). Type of data set: cell-based. The settings on record: Homo sapiens, SW-620, 144 h, read-out: SW620 3D cell growth GI50. An outline of the steps:
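SW620 cells (endogenous KRAS G12V) grown in 3D were dosed next day with compound from DMSO stocks at various concentrations, then incubated 6 days at 37° C.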
Background: ATP-based viability assays read luminescence as a measure of living cells.

The nature of data set [1]: Pharmacokinetics following single intravenous and oral gavage dosing (AUC0-24h). Type of data set: in vivo. The settings on record: mouse, plasma, male CD-1 mice. The method, then:
Compounds disclosed herein were studied for animal tolerability and pharmacokinetics following single intravenous (iv) and oral gavage (po) dosing to male CD-1 mice. For each compound in each dosing route, 3 mice were used with iv dosing volume of 5 mL/kg and po dosing volume of 10 mL/kg. The compounds were formulated in 10% DMSO, 30% PEG400, 60% aqueous solution containing 20% 2-hydroxypropyl-β-cyclodextrin. Blood sampling time points for iv dosing were 0.083, 0.25, 0.5, 1, 2, 4, 8 and 24 h. The sampling time points for po dosing were 0.25, 0.5, 1, 2, 4, 6, 8 and 24 h. Mice activities were monitored and recorded immediately following the dosing. The prepared plasma samples were analyzed using LC/MS/MS on AB Sciex Triple Quad 5500+ system. The PK parameters were determined by non-compartmental analysis using WinNonlin (Version 8.0).

A further data set concerns the target KRAS G12V (Homo sapiens (Human), UniProt P01116, G12V). In words: KRAS G12V degradation in SW620 cells (Western blot, DC50). Particulars: 24 hours. Type of data set: cell-based. An outline of the steps: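 SW620 cells (homozygous KRAS G12V) were treated with compound for 24 hours at 37° C. KRAS in lysates was measured by Western blot with fluorescent secondary antibodies and expressed relative to DMSO vehicle (100%). DC50 came from a four-parameter variable-slope dose-response fit.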
A general note: In western blotting, separated proteins are transferred to a membrane and probed.

Chain of KRAS G12V (P01116-2 other isoform, or with tags, fused parts or gaps G12V): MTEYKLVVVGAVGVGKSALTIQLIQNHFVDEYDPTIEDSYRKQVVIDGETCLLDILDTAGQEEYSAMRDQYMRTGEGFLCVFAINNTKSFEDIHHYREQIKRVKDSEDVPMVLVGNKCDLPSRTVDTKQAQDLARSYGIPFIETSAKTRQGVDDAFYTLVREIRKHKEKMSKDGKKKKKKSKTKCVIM
Chain of KRAS-G12V/RAF1 (P01116-2 other isoform, or with tags, fused parts or gaps G12V): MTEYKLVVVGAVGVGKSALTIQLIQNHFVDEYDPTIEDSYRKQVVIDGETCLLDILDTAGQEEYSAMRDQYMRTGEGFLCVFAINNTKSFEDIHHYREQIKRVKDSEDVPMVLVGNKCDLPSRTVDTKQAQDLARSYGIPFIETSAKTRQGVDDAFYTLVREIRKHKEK

With `CCc1c(F)ccc2cc(O)cc(-c3ncc4c(N5CCC[C@]6(CCO6)C5)nc(OCC5(CN6CCC(CN7CCN(c8cc(F)c(C9CCC(=O)NC9=O)c(F)c8)CC7)CC6)CC5)nc4c3F)c12` (stereo partly drawn) [Compound 216, 3-(4-(4-((1-((1-(((7-(8-ethyl-7-fluoro-3-hydroxynaphthalen-1-yl)-8-fluoro-4-((S)-1-oxa-6-azaspiro[3.5]nonan-6-yl)pyrido[4,3-d]pyrimidin-2-yl)oxy)methyl)cyclopropyl)methyl)piperidin-4-yl)methyl)piperazin-1-yl)-2,6-difluorophenyl)piperidine-2,6-dione], the IC50 at KRAS-G12V/RAF1 is over 200 nM. In addition, the concentration for 50% growth inhibition (GI50) in the data set with SW620 cells (SW620 cells, 6 days) is under 10 nM. The molecule also registered an AUC(0-t) in data set [1] (single oral dose 15 mg/Kg) of 2140 ng·h/mL. Also, at KRAS G12V, the half-maximal degradation concentration (DC50) was in the range of 1 to 10 nM.
The molecule `CCc1c(F)ccc2cc(O)cc(-c3ncc4c(N5CCC[C@@](C)(O)C5)nc(OCC5(CN6CCC(C)(CN7CCN(c8cc(F)c(C9CCC(=O)NC9=O)c(F)c8)CC7)CC6)CC5)nc4c3F)c12` (stereo partly drawn) [Compound 48, 3-(4-(4-((1-((1-(((7-(8-ethyl-7-fluoro-3-hydroxynaphthalen-1-yl)-8-fluoro-4-((R)-3-hydroxy-3-methylpiperidin-1-yl)pyrido[4,3-d]pyrimidin-2-yl)oxy)methyl)cyclopropyl)methyl)-4-methylpiperidin-4-yl)methyl)piperazin-1-yl)-2,6-difluorophenyl)piperidine-2,6-dione] showed a half-inhibitory concentration (IC50) on KRAS-G12V/RAF1 of 20 to 200 nM. The 50% growth inhibitory concentration (GI50) with SW620 cells is under 10 nM. In addition, the AUC(0-t) in data set [1] (single oral dose 30 mg/Kg) is 17200 ng·h/mL. This molecule also had a DC50 at KRAS G12V of 1 to 10 nM.
For the molecule `CCc1c(F)ccc2cc(O)cc(-c3ncc4c(N5CCC[C@@](C)(O)C5)nc(OCC5(CN6CCC7(CC6)CC(N6CCN(c8ccc9c(c8)CN([C@H]8CCC(=O)NC8=O)C9=O)CC6)C7)CC5)nc4c3F)c12` [Compound 121, (S)-3-(5-(4-(7-((1-(((7-(8-ethyl-7-fluoro-3-hydroxynaphthalen-1-yl)-8-fluoro-4-((R)-3-hydroxy-3-methylpiperidin-1-yl)pyrido[4,3-d]pyrimidin-2-yl)oxy)methyl)cyclopropyl)methyl)-7-azaspiro[3.5]nonan-2-yl)piperazin-1-yl)-1-oxoisoindolin-2-yl)piperidine-2,6-dione], at KRAS-G12V/RAF1, the IC50 was under 20 nM. For the same molecule, the GI50 in the data set with SW620 cells (SW620 cells, 6 days) was under 10 nM. This molecule showed an AUC(0-t) in data set [1] (single oral dose 50 mg/Kg) of 598 ng·h/mL. This molecule registered a DC50 on KRAS G12V of under 1 nM.
`CCc1c(F)ccc2cc(O)cc(-c3ncc4c(N5CCC[C@]6(CCO6)C5)nc(OCC5(CN6CCC7(CCC(N8CCN(c9ccc%10c(c9)CN([C@H]9CCC(=O)NC9=O)C%10=O)CC8)CC7)CC6)CC5)nc4c3F)c12` [Compound 219, (S)-3-(5-(4-(3-((1-(((7-(8-ethyl-7-fluoro-3-hydroxynaphthalen-1-yl)-8-fluoro-4-((S)-1-oxa-6-azaspiro[3.5]nonan-6-yl)pyrido[4,3-d]pyrimidin-2-yl)oxy)methyl)cyclopropyl)methyl)-3-azaspiro[5.5]undecan-9-yl)piperazin-1-yl)-1-oxoisoindolin-2-yl)piperidine-2,6-dione] showed a half-inhibitory concentration (IC50) on KRAS-G12V/RAF1 of under 20 nM. In addition, the GI50 in the data set with SW620 cells (SW620 cells, 6 days) was under 10 nM. The molecule also returned an AUC(0-t) in data set [1] (single oral dose 30 mg/Kg) of 718 ng·h/mL. At KRAS G12V, the half-maximal degradation concentration (DC50) is under 1 nM.
On KRAS-G12V/RAF1, `CCc1c(F)ccc2cc(O)cc(-c3ncc4c(N5CCC[C@@](C)(O)C5)nc(OCC5(CN6CCC(CN7CCN(c8ccc9c(c8)CN([C@H]8CCC(=O)NC8=O)C9=O)CC7)(OC)CC6)CC5)nc4c3F)c12` [Compound 25, (S)-3-(5-(4-((1-((1-(((7-(8-ethyl-7-fluoro-3-hydroxynaphthalen-1-yl)-8-fluoro-4-((R)-3-hydroxy-3-methylpiperidin-1-yl)pyrido[4,3-d]pyrimidin-2-yl)oxy)methyl)cyclopropyl)methyl)-4-methoxypiperidin-4-yl)methyl)piperazin-1-yl)-1-oxoisoindolin-2-yl)piperidine-2,6-dione] gave a half-inhibitory concentration (IC50) of under 20 nM. Further, in the data set with SW620 cells (SW620 cells, 6 days), the GI50 is under 10 nM. This molecule came in with an AUC(0-t) in data set [1] (single oral dose 25 mg/Kg) of 525 ng·h/mL. This molecule returned a DC50 at KRAS G12V of under 1 nM.
On KRAS-G12V/RAF1, `CCc1c(F)ccc2cc(O)cc(-c3ncc4c(N5CCC[C@@](C)(O)C5)nc(OCC5(CN6CCC7(CCC(N8CCN(c9ccc%10c(c9)CN([C@H]9CCC(=O)NC9=O)C%10=O)CC8)CC7)CC6)CC5)nc4c3F)c12` [Compound 120, (S)-3-(5-(4-(3-((1-(((7-(8-ethyl-7-fluoro-3-hydroxynaphthalen-1-yl)-8-fluoro-4-((R)-3-hydroxy-3-methylpiperidin-1-yl)pyrido[4,3-d]pyrimidin-2-yl)oxy)methyl)cyclopropyl)methyl)-3-azaspiro[5.5]undecan-9-yl)piperazin-1-yl)-1-oxoisoindolin-2-yl)piperidine-2,6-dione] yielded an IC50 of under 20 nM. Besides, the concentration for 50% growth inhibition (GI50) with SW620 cells (SW620 cells, 6 days) was under 10 nM. In data set [1] (single oral dose 50 mg/Kg), the area under the curve AUC(0-t) was determined as 255 ng·h/mL. The molecule further returned a DC50 at KRAS G12V of 1 to 10 nM.
With `CCc1c(F)ccc2cc(O)cc(-c3ncc4c(N5CCC[C@]6(CCO6)C5)nc(OCC5(CN6CCC(C)(CN7CCN(c8ccc9c(c8)CN([C@H]8CCC(=O)NC8=O)C9=O)CC7)CC6)CC5)nc4c3F)c12` [Compound 217, (S)-3-(5-(4-((1-((1-(((7-(8-ethyl-7-fluoro-3-hydroxynaphthalen-1-yl)-8-fluoro-4-((S)-1-oxa-6-azaspiro[3.5]nonan-6-yl)pyrido[4,3-d]pyrimidin-2-yl)oxy)methyl)cyclopropyl)methyl)-4-methylpiperidin-4-yl)methyl)piperazin-1-yl)-1-oxoisoindolin-2-yl)piperidine-2,6-dione], the IC50 on KRAS-G12V/RAF1 lay within 20 to 200 nM. Also, in the data set on SW620 cells (SW620 cells, 6 days), the concentration for 50% growth inhibition (GI50) is under 10 nM. The molecule further gave an AUC(0-t) in data set [1] (single oral dose 15 mg/Kg) of 977 ng·h/mL. Moreover, the DC50 at KRAS G12V was under 1 nM.
With `CCc1c(F)ccc2cc(O)cc(-c3ncc4c(N5CCC[C@@](C)(O)C5)nc(OCC5(CN6CCC(F)(CN7CCN(c8ccc9c(c8)CN([C@H]8CCC(=O)NC8=O)C9=O)CC7)CC6)CC5)nc4c3F)c12` [Compound 8, (S)-3-(5-(4-((1-((1-(((7-(8-ethyl-7-fluoro-3-hydroxynaphthalen-1-yl)-8-fluoro-4-((R)-3-hydroxy-3-methylpiperidin-1-yl)pyrido[4,3-d]pyrimidin-2-yl)oxy)methyl)cyclopropyl)methyl)-4-fluoropiperidin-4-yl)methyl)piperazin-1-yl)-1-oxoisoindolin-2-yl)piperidine-2,6-dione], the concentration for half-maximal inhibition (IC50) on KRAS-G12V/RAF1 was 20 to 200 nM. For the same molecule, the concentration for 50% growth inhibition (GI50) in the data set on SW620 cells (SW620 cells, 6 days) is under 10 nM. Also, the AUC(0-t) in data set [1] (single oral dose 30 mg/Kg) was 3420 ng·h/mL. The DC50 on KRAS G12V was under 1 nM.
On the same counts, the results for `CCc1c(F)ccc2cc(O)cc(-c3ncc4c(N5CCC[C@@](C)(O)C5)nc(OCC5(CN6CCC(C)(CN7CCN(c8ccc9c(c8)CN([C@H]8CCC(=O)NC8=O)C9=O)CC7)CC6)CC5)nc4c3F)c12` [Compound 12, (S)-3-(5-(4-((1-((1-(((7-(8-ethyl-7-fluoro-3-hydroxynaphthalen-1-yl)-8-fluoro-4-((R)-3-hydroxy-3-methylpiperidin-1-yl)pyrido[4,3-d]pyrimidin-2-yl)oxy)methyl)cyclopropyl)methyl)-4-methylpiperidin-4-yl)methyl)piperazin-1-yl)-1-oxoisoindolin-2-yl)piperidine-2,6-dione] are 20 to 200 nM, under 10 nM, 3250 ng·h/mL and under 1 nM.
For `CCc1c(F)ccc2cc(O)cc(-c3ncc4c(N5CCC[C@@](C)(O)C5)nc(OCC5(CN6CCC7(CC6)CC(N6CCN(c8cc(F)c(C9CCC(=O)NC9=O)c(F)c8)CC6)C7)CC5)nc4c3F)c12` (stereo partly drawn) [Compound 50, 3-(4-(4-(7-((1-(((7-(8-ethyl-7-fluoro-3-hydroxynaphthalen-1-yl)-8-fluoro-4-((R)-3-hydroxy-3-methylpiperidin-1-yl)pyrido[4,3-d]pyrimidin-2-yl)oxy)methyl)cyclopropyl)methyl)-7-azaspiro[3.5]nonan-2-yl)piperazin-1-yl)-2,6-difluorophenyl)piperidine-2,6-dione], in that order: 20 to 200 nM, under 10 nM, 3900 ng·h/mL and under 1 nM.
In turn, `CCc1c(F)ccc2cc(O)cc(-c3ncc4c(N5CCC[C@]6(CCO6)C5)nc(OCC5(CN6CCC7(CC6)CC(F)(CN6CCN(c8cc(F)c(C9CCC(=O)NC9=O)c(F)c8)CC6)C7)CC5)nc4c3F)c12` (stereo partly drawn) [Compound 215, 3-(4-(4-((7-((1-(((7-(8-ethyl-7-fluoro-3-hydroxynaphthalen-1-yl)-8-fluoro-4-((S)-1-oxa-6-azaspiro[3.5]nonan-6-yl)pyrido[4,3-d]pyrimidin-2-yl)oxy)methyl)cyclopropyl)methyl)-2-fluoro-7-azaspiro[3.5]nonan-2-yl)methyl)piperazin-1-yl)-2,6-difluorophenyl)piperidine-2,6-dione] gave an IC50 on KRAS-G12V/RAF1 of 20 to 200 nM. In the data set on SW620 cells (SW620 cells, 6 days), the GI50 was under 10 nM. In data set [1] (single oral dose 30 mg/Kg), this molecule registered an AUC(0-t) of 4710 ng·h/mL. Moreover, the half-maximal degradation concentration (DC50) at KRAS G12V is under 1 nM.

In general, IC50 refers to the concentration that inhibits the measured activity by half. Low readings indicate higher potency, high ones lower potency. Broadly, the GI50 is the concentration that inhibits growth by half. By AUC(0-t) is commonly meant the area under the concentration-time curve up to a stated or last time point. Low readings indicate less exposure, high ones more exposure. The DC50 is the concentration giving 50% degradation. A high value points to degradation only at high concentration.
